# Source: patent US12077503B2, “Substituted cyclic amides and their use as herbicides” (FMC CORPORATION, priority 2015, dated 2024)
# Experiments:
# Assay type in all cases: in vivo
# [1] = tested on: giant foxtail (Setaria faberii); test: Test A preemergence; details: Setaria faberi, pre-emergence, 240 h, preemergence, 0 to 100 scale where 0 is no effect and 100 is complete control, read-out: Foxtail, Giant plant response rating
# How it was run: (§1)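 Preemergence directed soil spray on seeded pots, or postemergence application to plants 2–10 cm, one- to two-leaf. Solvent mixture non-phytotoxic, with surfactant. Scored ~10 d later, visually, 0–100 vs untreated.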
# [2] = tested on: ragweed (common ragweed, Ambrosia elatior); test: Test A preemergence; details: Ambrosia artemisiifolia, pre-emergence, 240 h, preemergence, 0 to 100 scale where 0 is no effect and 100 is complete control, read-out: Ragweed plant response rating
# How it was run: as §1
# [3] = tested on: pigweed (Amaranthus retroflexus); test: Test A preemergence; details: Amaranthus retroflexus, pre-emergence, 240 h, preemergence, 0 to 100 scale where 0 is no effect and 100 is complete control, read-out: Pigweed plant response rating
# [4] = tested on: barnyardgrass (Echinochloa crus-galli); test: Test A preemergence; details: Echinochloa crus-galli, pre-emergence, 240 h, preemergence, 0 to 100 scale where 0 is no effect and 100 is complete control, read-out: Barnyardgrass plant response rating
# How it was run: as §1
# Kochia (Kochia scoparia) = test: Test A preemergence; details: Bassia scoparia, pre-emergence, 240 h, preemergence, 0 to 100 scale where 0 is no effect and 100 is complete control, read-out: Kochia plant response rating
# How it was run: as §1
# [5] = tested on: ryegrass, Italian (Italian ryegrass, Lolium multiflorum); test: Test A preemergence; details: Lolium multiflorum, pre-emergence, 240 h, preemergence, 0 to 100 scale where 0 is no effect and 100 is complete control, read-out: Ryegrass, Italian plant response rating
# How it was run: as §1
# corn (Zea mays) = test: Test A postemergence; details: Zea mays, post-emergence, 240 h, postemergence
# How it was run: as §1
# [6] = tested on: wheat (Triticum aestivum); test: Test A postemergence; details: Triticum aestivum, post-emergence, 240 h, postemergence
# How it was run: as §1
# [7] = tested on: giant foxtail (Setaria faberii); test: Test A postemergence; details: Setaria faberi, post-emergence, 240 h, postemergence
# How it was run: as §1
# [8] = tested on: ragweed (common ragweed, Ambrosia elatior); test: Test A postemergence; details: Ambrosia artemisiifolia, post-emergence, 240 h, postemergence
# How it was run: as §1
# [9] = tested on: pigweed (Amaranthus retroflexus); test: Test A postemergence; details: Amaranthus retroflexus, post-emergence, 240 h, postemergence
# How it was run: as §1
# [10] = tested on: barnyardgrass (Echinochloa crus-galli); test: Test A postemergence; details: Echinochloa crus-galli, post-emergence, 240 h, postemergence
# How it was run: as §1
# [11] = tested on: ryegrass, Italian (Italian ryegrass, Lolium multiflorum); test: Test A postemergence; details: Lolium multiflorum, post-emergence, 240 h, postemergence
# How it was run: as §1
# [12] = tested on: Galium (catchweed bedstraw, Galium aparine); test: Test A postemergence; details: Galium, post-emergence, 240 h, postemergence
# How it was run: as §1
# [13] = tested on: blackgrass (Alopecurus myosuroides); test: Test A postemergence; details: Alopecurus myosuroides, post-emergence, 240 h, postemergence
# How it was run: as §1
structure (smiles),measurement,setting,value
CCc1cc([C@H]2CN(C)C(=O)[C@@H]2C(=O)Nc2ccccc2F)cs1 [Compound 1156],pest or weed control at 125 g/ha,"[1]; 125 g ai/ha, approx. 10 d",90%
same,pest or weed control at 500 g/ha,[1]; 500 g ai/ha,100%
same,pest or weed control at 125 g/ha,"[2]; 125 g ai/ha, approx. 10 d",100%
same,pest or weed control at 500 g/ha,[2]; 500 g ai/ha,100%
same,pest or weed control at 125 g/ha,"[3]; 125 g ai/ha, approx. 10 d",0%
same,pest or weed control at 500 g/ha,[3]; 500 g ai/ha,20%
same,pest or weed control at 125 g/ha,"[4]; 125 g ai/ha, approx. 10 d",90%
same,pest or weed control at 500 g/ha,[4]; 500 g ai/ha,90%
same,pest or weed control at 125 g/ha,"Kochia (Kochia scoparia); 125 g ai/ha, approx. 10 d",70%
same,pest or weed control at 500 g/ha,Kochia (Kochia scoparia); 500 g ai/ha,80%
same,pest or weed control at 125 g/ha,"[5]; 125 g ai/ha, approx. 10 d",20%
same,pest or weed control at 500 g/ha,[5]; 500 g ai/ha,30%
same,plant injury at 125 g/ha,"corn (Zea mays); 125 g ai/ha, visual injury vs untreated controls after approx. 10 d, 0 = no effect, 100 = complete control, read-out: Corn plant response rating (0 to 100 scale)",20%
same,plant injury at 500 g/ha,"corn (Zea mays); 500 g ai/ha, 0 to 100 scale, 0 is no effect, 100 is complete control, read-out: Corn plant response rating",60%
same,plant injury at 125 g/ha,"[6]; 125 g ai/ha, visual injury vs untreated controls after approx. 10 d, 0 = no effect, 100 = complete control, read-out: Wheat plant response rating (0 to 100 scale)",20%
same,plant injury at 500 g/ha,"[6]; 500 g ai/ha, 0 to 100 scale, 0 is no effect, 100 is complete control, read-out: Wheat plant response rating",50%
same,pest or weed control at 125 g/ha,"[7]; 125 g ai/ha, visual injury vs untreated controls after approx. 10 d, 0 = no effect, 100 = complete control, read-out: Foxtail, Giant plant response rating (0 to 100 scale)",90%
same,pest or weed control at 500 g/ha,"[7]; 500 g ai/ha, 0 to 100 scale, 0 is no effect, 100 is complete control, read-out: Foxtail, Giant plant response rating",90%
same,pest or weed control at 125 g/ha,"[8]; 125 g ai/ha, visual injury vs untreated controls after approx. 10 d, 0 = no effect, 100 = complete control, read-out: Ragweed plant response rating (0 to 100 scale)",0%
same,pest or weed control at 500 g/ha,"[8]; 500 g ai/ha, 0 to 100 scale, 0 is no effect, 100 is complete control, read-out: Ragweed plant response rating",0%
same,pest or weed control at 125 g/ha,"[9]; 125 g ai/ha, visual injury vs untreated controls after approx. 10 d, 0 = no effect, 100 = complete control, read-out: Pigweed plant response rating (0 to 100 scale)",0%
same,pest or weed control at 500 g/ha,"[9]; 500 g ai/ha, 0 to 100 scale, 0 is no effect, 100 is complete control, read-out: Pigweed plant response rating",0%
same,pest or weed control at 125 g/ha,"[10]; 125 g ai/ha, visual injury vs untreated controls after approx. 10 d, 0 = no effect, 100 = complete control, read-out: Barnyardgrass plant response rating (0 to 100 scale)",90%
same,pest or weed control at 500 g/ha,"[10]; 500 g ai/ha, 0 to 100 scale, 0 is no effect, 100 is complete control, read-out: Barnyardgrass plant response rating",90%
same,pest or weed control at 125 g/ha,"[11]; 125 g ai/ha, visual injury vs untreated controls after approx. 10 d, 0 = no effect, 100 = complete control, read-out: Ryegrass, Italian plant response rating (0 to 100 scale)",20%
same,pest or weed control at 500 g/ha,"[11]; 500 g ai/ha, 0 to 100 scale, 0 is no effect, 100 is complete control, read-out: Ryegrass, Italian plant response rating",30%
same,pest or weed control at 125 g/ha,"[12]; 125 g ai/ha, visual injury vs untreated controls after approx. 10 d, 0 = no effect, 100 = complete control, read-out: Galium plant response rating (0 to 100 scale)",40%
same,pest or weed control at 500 g/ha,"[12]; 500 g ai/ha, 0 to 100 scale, 0 is no effect, 100 is complete control, read-out: Galium plant response rating",50%
same,pest or weed control at 125 g/ha,"[13]; 125 g ai/ha, visual injury vs untreated controls after approx. 10 d, 0 = no effect, 100 = complete control, read-out: Blackgrass plant response rating (0 to 100 scale)",0%
same,pest or weed control at 500 g/ha,"[13]; 500 g ai/ha, 0 to 100 scale, 0 is no effect, 100 is complete control, read-out: Blackgrass plant response rating",40%
